Measured values taken from US8551721B2, “Bioluminescent detection of cyanohydroxy benzothiazole compounds” (Promega Corporation, priority 2008, dated 2013).

Experiments:
Assay type in all cases: biochemical
[1] = target: T1, UGT 1A10 (Homo sapiens, UniProt Q9HAW8); test: UGT activity: utilization of substrate by recombinant UGT 1A10 Supersomes; conditions: 2 hour incubation at 37° C., plus vs minus UDPGA, background corrected
T1 construct: purchased BD Gentest; host or cells: insect cells (microsomes)
T1 sequence (Q9HAW8 26-530): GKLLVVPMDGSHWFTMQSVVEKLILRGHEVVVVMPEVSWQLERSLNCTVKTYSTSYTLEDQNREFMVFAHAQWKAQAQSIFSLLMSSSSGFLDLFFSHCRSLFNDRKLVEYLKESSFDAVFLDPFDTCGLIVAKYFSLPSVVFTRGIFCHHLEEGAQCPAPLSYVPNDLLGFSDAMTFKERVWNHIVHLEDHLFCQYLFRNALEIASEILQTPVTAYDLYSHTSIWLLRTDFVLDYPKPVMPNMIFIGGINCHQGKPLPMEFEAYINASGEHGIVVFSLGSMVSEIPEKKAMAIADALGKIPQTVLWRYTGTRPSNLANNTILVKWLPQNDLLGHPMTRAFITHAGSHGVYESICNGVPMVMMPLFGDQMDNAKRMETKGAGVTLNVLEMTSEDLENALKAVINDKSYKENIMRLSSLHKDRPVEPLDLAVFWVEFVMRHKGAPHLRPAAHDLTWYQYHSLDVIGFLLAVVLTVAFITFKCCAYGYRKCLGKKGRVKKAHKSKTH
Procedure: (§1) The invention includes a method of determining activity of the uridine 5′-diphospho-glucuronosyltransferase (UDP-glucuronosyltransferase, or UGT) family enzymes in vitro. Briefly, UGT enzymes from overexpressed insect microsomes (Supersomes™, BD Gentest™) or animal tissue microsomes (Xenotech, BD Gentest™) were incubated with a cyanobenzothiazole substrate of the invention and the cofactor UDP-glucuronic acid (UDPGA) at 37° C. in buffer at physiological pH containing MgCl2 and alamethicin (typically, 50 mM TES, pH 7.5, 8 mM MgCl2, 4 mM UDPGA (Sigma) and 25 μg/mL alamethicin (Sigma)). Following the UGT enzyme reaction, an equal volume of P450-Glo Luciferin Detection Reagent (Promega) containing 15-30 mM D-cysteine-HCl.H2O (Sigma) was added and the plate was mixed and incubated at room temperature, typically for 20-30 minutes. […]
(§2) During this incubation, the cysteine reacts with the cyanobenzathiozole substrate to yield a D-luciferin derivative. […] Therefore, activity of the UGT enzyme can be measured by analyzing the difference (lower or no output) in relative light units (RLU) of a sample in which glucuronidation occurs compared to a sample that was run under the same conditions with no added UDPGA cofactor. […]
(§3) Reactions were assembled in a white 96-well plate. […] After the incubation was completed, the plate was read on a Veritas™ luminometer (Turner BioSystems, Inc.; Sunnyvale, Calif.). […]

[2] = target: T2, UGT 1A7 (Homo sapiens, UniProt Q9HAW7); test: UGT activity: utilization of substrate by recombinant UGT 1A7 Supersomes; conditions: 2 hour incubation at 37° C., plus vs minus UDPGA
T2 construct: purchased BD Gentest; host or cells: insect cells (microsomes)
T2 sequence (Q9HAW7 26-530): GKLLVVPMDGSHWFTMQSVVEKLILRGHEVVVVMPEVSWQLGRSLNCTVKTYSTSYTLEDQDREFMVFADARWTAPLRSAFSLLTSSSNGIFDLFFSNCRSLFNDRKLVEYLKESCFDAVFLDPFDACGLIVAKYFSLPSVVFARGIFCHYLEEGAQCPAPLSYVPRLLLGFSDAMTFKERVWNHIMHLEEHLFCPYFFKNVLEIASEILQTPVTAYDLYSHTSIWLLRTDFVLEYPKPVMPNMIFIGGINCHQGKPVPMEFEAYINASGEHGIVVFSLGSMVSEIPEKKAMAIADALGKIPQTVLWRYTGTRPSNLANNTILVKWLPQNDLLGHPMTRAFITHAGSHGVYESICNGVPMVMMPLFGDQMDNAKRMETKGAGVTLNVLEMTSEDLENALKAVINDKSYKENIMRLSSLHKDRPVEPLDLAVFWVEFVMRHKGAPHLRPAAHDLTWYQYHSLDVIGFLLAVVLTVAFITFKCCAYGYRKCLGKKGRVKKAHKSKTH
Procedure: as §1, §2, §3

[3] = target: T3, UGT 1A3 (Homo sapiens, UniProt P35503); test: UGT activity: utilization of substrate by recombinant UGT 1A3 Supersomes; conditions: 2 hour incubation at 37° C., plus vs minus UDPGA
T3 construct: purchased BD Gentest; host or cells: insect cells (microsomes)
T3 sequence (P35503 29-534): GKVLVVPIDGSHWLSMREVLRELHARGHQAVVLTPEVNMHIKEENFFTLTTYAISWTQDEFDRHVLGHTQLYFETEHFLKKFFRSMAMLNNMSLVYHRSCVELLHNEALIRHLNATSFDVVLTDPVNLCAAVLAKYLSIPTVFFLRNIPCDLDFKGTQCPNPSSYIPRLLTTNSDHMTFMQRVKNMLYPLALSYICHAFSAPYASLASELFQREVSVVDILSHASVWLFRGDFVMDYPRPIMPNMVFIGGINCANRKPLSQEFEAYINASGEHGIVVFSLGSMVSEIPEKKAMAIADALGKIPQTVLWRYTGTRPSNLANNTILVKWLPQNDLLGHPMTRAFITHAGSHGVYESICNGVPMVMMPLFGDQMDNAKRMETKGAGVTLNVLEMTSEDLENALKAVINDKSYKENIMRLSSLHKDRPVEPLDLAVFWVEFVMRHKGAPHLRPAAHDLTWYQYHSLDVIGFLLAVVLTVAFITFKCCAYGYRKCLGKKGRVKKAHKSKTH
Procedure: as §1, §2, §3

Structure (SMILES)	% utilization by UGT 1A10 [1]	utilization by UGT 1A7 (in words) [2]	utilization by UGT 1A3 (in words) [3]
Cc1cc(O)cc2sc(C#N)nc12 [compound 3138]	over 50%	detectable levels of utilization above background	detectable levels of utilization above background
Cc1cc(O)cc2sc(C3=NC(C(=O)O)CS3)nc12 (stereo not drawn) [compound 3478]	≤ 15%	only UGT 1A6 was able to utilize compound 3478 to any appreciable extent	only UGT 1A6 was able to utilize compound 3478 to any appreciable extent
